Test results from PubChem BioAssay (NCI).
Where “and” joins values, the source holds several entries; their conditions need not be identical. Identical values can stand only once.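 All cell lines were grown in 96-well plates and treated with compound for 48 hours. Here, GI50 denotes the concentration required for 50% inhibition of growth. TGI: concentration producing complete growth inhibition.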

What was measured:
Assay in all cases: NCI-60 cell line screen, 48 h
UACC-62 melanoma = tested on: UACC-62 melanoma
MDA-MB-435 = tested on: MDA-MB-435
U251 CNS = tested on: U251 CNS
SNB-75 CNS = tested on: SNB-75 CNS
HCT-116 colon = tested on: HCT-116 colon
HCC-2998 colon = tested on: HCC-2998 colon
HOP-92 NSCLC = tested on: HOP-92 NSCLC
ACHN renal = tested on: ACHN renal
CCRF-CEM leukemia = tested on: CCRF-CEM leukemia
SF-268 CNS = tested on: SF-268 CNS
NCI/ADR-RES ovarian = tested on: NCI/ADR-RES ovarian
RXF 393 renal = tested on: RXF 393 renal

Row | SMILES | TGI (UACC-62 melanoma) [µM] | TGI (MDA-MB-435) [µM] | TGI (U251 CNS) [µM] | TGI (SNB-75 CNS) | TGI (HCT-116 colon) [µM] | TGI (HCC-2998 colon) [µM] | TGI (HOP-92 NSCLC) | TGI (ACHN renal) [µM] | TGI (CCRF-CEM leukemia) [µM] | TGI (SF-268 CNS) [µM] | TGI (NCI/ADR-RES ovarian) [µM] | TGI (RXF 393 renal) | GI50 (UACC-62 melanoma) | GI50 (SNB-75 CNS) | GI50 (HOP-92 NSCLC) | GI50 (ACHN renal) | GI50 (SF-268 CNS) | GI50 (RXF 393 renal)
1 | COc1ncc(C#CC(=O)c2ccccc2)c(OC)n1 | 8.78 | 11.5 | 9.59 | 14 µM | 10.1 | 13.3 | 4.3 µM | 3.7 | 2.07 | 26.4 | 7.73 | 3.79 µM |  |  |  |  |  | 
2 | Brc1ccc(C2CC3(c4ccccc4)ON=C(c4ccccc4)N3c3ccccc3S2)cc1 (configuration not stated) | > 100 | > 100 | > 100 | > 100 µM | > 100 | > 100 | > 100 µM | > 100 | > 100 | > 100 | > 100 | > 100 µM |  |  |  |  |  | 
3 | C=CC(C)(C)n1cc(C2=C(O)C(=O)C(c3c(CC=C(C)C)[nH]c4ccccc34)=C(O)C2=O)c2ccccc21 | 1.18 | 2.38 | 3.33 | 4.1 µM | 5.59 | 2.33 | 3.35 µM | 4.32 | 8.96 | 5.13 | 9.09 | 6.05 µM |  |  |  |  |  | 
4 | C[C@H](CO)C1=CC(C#C[Si](C)(C)C)N(C(=O)Oc2ccccc2)c2ccccc21 (some centres not stated) | 19.9 | 7.25 | 28 | 23 µM | 22.7 | 30.6 | 28.7 µM | 26.8 | 53.1 | 27.6 | 12.6 | 23 µM |  |  |  |  |  | 
5 | COc1ccc(-c2nc(SC)n(C3OC(COC(C)=O)C(OC(C)=O)C(OC(C)=O)C3OC(C)=O)c(=O)c2C#N)cc1 (configuration not stated) | > 100 | > 100 | > 100 | 57.9 µM and > 100 µM | > 100 | > 100 | 52.9 µM and > 100 µM | > 100 | > 100 | > 100 | > 100 | 35.4 µM and > 100 µM | 40.5 µM and > 100 µM | 22.8 µM and 65.6 µM | 14.1 µM and 39.2 µM | 35.8 µM and > 100 µM | 21.8 µM and 76.4 µM | 16.5 µM and > 100 µM
6 | OC[C@@H](O)[C@H](O)[C@@H](O)/C=N/Nc1ccc(Cl)nn1 | > 100 | > 100 | > 100 |  | > 100 | > 100 | > 100 µM | > 100 | > 100 | > 100 | > 100 | > 100 µM |  |  |  |  |  | 
7 | O=C1CSC(c2cccc(Oc3ccccc3)c2)N1c1cccc(Cl)c1Cl (configuration not stated) | 46.9 | 56.1 | 39.1 | > 100 µM | 38.5 | 26.2 | 45.8 µM | 47.9 | > 100 | 60 | 59.9 | > 100 µM |  |  |  |  |  | 
8 | Cc1ccc(N2C3=C(CC4=C2CC(C)(C)CC4=O)C(=O)CC(C)(C)C3)cc1 | > 100 | > 100 | > 100 | 82.6 µM | > 100 | > 100 |  | > 100 | > 100 | > 100 | > 100 | > 100 µM |  |  |  |  |  | 
9 | COc1ccc(Br)c(C=Nc2cccc3cc(OC)c(OC)cc23)c1 | > 83 | 12.6 | 12.1 | > 100 µM | 34.2 | > 100 | 79.5 µM | > 73.8 | > 40.5 | > 100 | > 77.8 | > 100 µM |  |  |  |  |  | 
